From patent US12655116B2, “Substituted isophthalic acid diamides” (Bayer Aktiengesellschaft, priority 2020, dated 2026)

How the values were obtained:
AMARE [1] = experiment: Post-emergence herbicidal action against AMARE; type: in vivo, Amaranthus retroflexus; settings: 20 g/ha, visual assessment about 3 weeks after treatment, 100% = plants have died, 0% = like control plants
Procedure, shortened: (§1)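 A WP or EC formulation diluted in water with 0.2% wetting agent was sprayed at 600 to 800 l/ha onto one-leaf-stage plants grown in sandy loam. About 3 weeks later, action was rated visually in percent, 100% being dead plants.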

SETVI [2] = experiment: Pre-emergence herbicidal action against SETVI; type: in vivo, Setaria viridis; settings: dosage 80 g/ha
Procedure, shortened: (§2)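 Greenhouse pots of sandy loam held seeds covered with soil, onto which the compound was applied before emergence. An aqueous suspension or emulsion of WP or EC was used at 600 to 800 l/ha with 0.2% wetting agent. Percent damage was judged visually at 3 weeks.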

MATIN [3] = experiment: Pre-emergence herbicidal action against MATIN; type: in vivo, Matricaria inodora
Procedure, shortened: as §2

DIGSA [4] = experiment: Pre-emergence herbicidal action against DIGSA; type: in vivo, Digitaria sanguinalis
Procedure, shortened: as §2

ECHCG [5] = experiment: Post-emergence herbicidal action against ECHCG; type: in vivo, Echinochloa crus-galli; settings: dosage 20 g/ha
Procedure, shortened: as §1

VIOTR [6] = experiment: Pre-emergence herbicidal action against VIOTR; type: in vivo, Viola tricolor
Procedure, shortened: as §2

AMARE [7] = experiment: Pre-emergence herbicidal action against AMARE; type: in vivo, Amaranthus retroflexus
Procedure, shortened: as §2

MATIN [8] = experiment: Post-emergence herbicidal action against MATIN; type: in vivo, Matricaria inodora; settings: dosage 20 g/ha
Procedure, shortened: as §1

ECHCG [9] = experiment: Pre-emergence herbicidal action against ECHCG; type: in vivo, Echinochloa crus-galli; settings: 80 g/ha
Procedure, shortened: as §2

ABUTH [10] = experiment: Pre-emergence herbicidal action against ABUTH; type: in vivo, Abutilon theophrasti; settings: for Pre-emergence action against ABUTH (herbicidal activity in percent): dosage 20 g/ha, scored visually after 3 weeks vs untreated controls, 100% = plants have died, 0% = like control plants
Procedure, shortened: as §2

VERPE = experiment: Pre-emergence herbicidal action against VERPE; type: in vivo, Veronica persica; settings: dosage 80 g/ha
Procedure, shortened: as §2

PHBPU [11] = experiment: Pre-emergence herbicidal action against PHBPU; type: in vivo, Pharbitis purpurea; settings: dosage 80 g/ha
Procedure, shortened: as §2

POLCO = experiment: Pre-emergence herbicidal action against POLCO; type: in vivo, Polygonum convolvulus; settings: dosage 80 g/ha
Procedure, shortened: as §2

VIOTR [12] = experiment: Post-emergence herbicidal action against VIOTR; type: in vivo, Viola tricolor
Procedure, shortened: as §1

ALOMY [13] = experiment: Pre-emergence herbicidal action against ALOMY; type: in vivo, Alopecurus myosuroides; settings: pre-emergence
Procedure, shortened: as §2

DIGSA [14] = experiment: Post-emergence herbicidal action against DIGSA; type: in vivo, Digitaria sanguinalis; settings: 20 g/ha
Procedure, shortened: as §1

AVEFA = experiment: Pre-emergence herbicidal action against AVEFA; type: in vivo, Avena fatua; settings: 80 g/ha, pre-emergence
Procedure, shortened: as §2

ABUTH [15] = experiment: Post-emergence herbicidal action against ABUTH; type: in vivo, Abutilon theophrasti; settings: visual assessment about 3 weeks after treatment vs untreated controls
Procedure, shortened: as §1

PHBPU [16] = experiment: Post-emergence herbicidal action against PHBPU; type: in vivo, Pharbitis purpurea; settings: Ipomoea purpurea, 504 h, dosage 20 g/ha
Procedure, shortened: as §1

SETVI [17] = experiment: Post-emergence herbicidal action against SETVI; type: in vivo, Setaria viridis; settings: Setaria viridis, 504 h
Procedure, shortened: as §1

ALOMY [18] = experiment: Post-emergence herbicidal action against ALOMY; type: in vivo, Alopecurus myosuroides; settings: Alopecurus myosuroides, 504 h, visual assessment about 3 weeks after treatment vs untreated controls
Procedure, shortened: as §1

[19] = 20 g/ha, scored visually after 3 weeks vs untreated controls, 100% = plants have died, 0% = like control plants
[20] = 80 g/ha, scored visually after 3 weeks vs untreated controls (100% = plants have died, 0% = like control plants)

## CCn1nnnc1NC(=O)c1ccc(C(F)F)c(C(=O)NC2CCC2)c1Cl [Example 2-164]
AMARE [1]
  Post-emergence action at 20 g/ha against AMARE in %: 90%
SETVI [2]
  Pre-emergence action against SETVI in %: 80%
MATIN [3]; dosage 20 g/ha
  Pre-emergence action against MATIN in %: 100%
MATIN [3]; dosage 80 g/ha
  Pre-emergence action against MATIN in %: 100%
DIGSA [4]; dosage 80 g/ha
  Pre-emergence action against DIGSA in %: 100%
ECHCG [5]
  Post-emergence action against ECHCG in %: 80%
VIOTR [6]; dosage 80 g/ha
  Pre-emergence action against VIOTR in %: 100%
AMARE [7]; [19]
  Pre-emergence action against AMARE in %: 100%
AMARE [7]; [20]
  Pre-emergence action against AMARE in %: 100%
MATIN [8]
  Post-emergence action against MATIN in %: 80%
ECHCG [9]
  Pre-emergence action against ECHCG in %: 80%
ABUTH [10]; [20]
  Pre-emergence action against ABUTH (herbicidal activity): 100%
ABUTH [10]
  Pre-emergence action against ABUTH (herbicidal activity in percent): 90%
VERPE
  Pre-emergence action against VERPE in %: 100%
PHBPU [11]
  Pre-emergence action against PHBPU in %: 100%
POLCO
  Pre-emergence action against POLCO in %: 90%

## CCn1nnnc1NC(=O)c1ccc(C(F)F)c(C(=O)NC)c1Br [Example 2-225]
AMARE [1]
  Post-emergence action at 20 g/ha against AMARE in %: 100%
SETVI [2]
  Pre-emergence action against SETVI in %: 100%
VIOTR [12]; 5 g/ha
  Post-emergence action against VIOTR in %: 100%
VIOTR [12]; 20 g/ha
  Post-emergence action against VIOTR in %: 100%
MATIN [3]; dosage 20 g/ha
  Pre-emergence action against MATIN in %: 80%
MATIN [3]; dosage 80 g/ha
  Pre-emergence action against MATIN in %: 100%
DIGSA [4]; dosage 20 g/ha
  Pre-emergence action against DIGSA in %: 100%
DIGSA [4]; dosage 80 g/ha
  Pre-emergence action against DIGSA in %: 100%
ECHCG [5]
  Post-emergence action against ECHCG in %: 100%
VIOTR [6]; dosage 20 g/ha
  Pre-emergence action against VIOTR in %: 80%
VIOTR [6]; dosage 80 g/ha
  Pre-emergence action against VIOTR in %: 100%
AMARE [7]; [19]
  Pre-emergence action against AMARE in %: 100%
AMARE [7]; [20]
  Pre-emergence action against AMARE in %: 100%
MATIN [8]
  Post-emergence action against MATIN in %: 80%
ECHCG [9]
  Pre-emergence action against ECHCG in %: 90%
ABUTH [10]; [20]
  Pre-emergence action against ABUTH (herbicidal activity): 100%
ABUTH [10]
  Pre-emergence action against ABUTH (herbicidal activity in percent): 100%
ALOMY [13]; [20]
  Pre-emergence action against ALOMY (herbicidal activity): 100%
VERPE
  Pre-emergence action against VERPE in %: 100%
PHBPU [11]
  Pre-emergence action against PHBPU in %: 90%
DIGSA [14]
  Post-emergence action against DIGSA: 100%
AVEFA
  Pre-emergence action against AVEFA in %: 80%
POLCO
  Pre-emergence action against POLCO in %: 90%
ABUTH [15]; dosage 5 g/ha
  Post-emergence action against ABUTH in %: 100%
ABUTH [15]; dosage 20 g/ha
  Post-emergence action against ABUTH in %: 100%

## CCNC(=O)c1c(Cl)ccc(C(=O)Nc2nnnn2CC)c1Br [Example 2-348]
AMARE [1]; Amaranthus retroflexus, 504 h
  pest or weed control at 20 g/ha: 100%
SETVI [2]; Setaria viridis, 504 h
  pest or weed control at 80 g/ha: 100%
VIOTR [12]; Viola tricolor, 504 h, 20 g/ha
  pest or weed control at 20 g/ha: 80%
MATIN [3]; Tripleurospermum inodorum, 504 h, dosage 20 g/ha
  pest or weed control at 20 g/ha: 90%
MATIN [3]; Tripleurospermum inodorum, 504 h, dosage 80 g/ha
  pest or weed control at 80 g/ha: 90%
ECHCG [5]; Echinochloa crus-galli, 504 h
  pest or weed control at 20 g/ha: 80%
VIOTR [6]; Viola tricolor, 504 h, dosage 80 g/ha
  pest or weed control at 80 g/ha: 100%
AMARE [7]; Amaranthus retroflexus, 504 h, 20 g/ha, scored visually after 3 weeks vs untreated controls, 100% = plants have died, 0% = like control plants
  pest or weed control at 20 g/ha: 100%
AMARE [7]; Amaranthus retroflexus, 504 h, 80 g/ha, scored visually after 3 weeks vs untreated controls, 100% = plants have died, 0% = like control plants
  pest or weed control at 80 g/ha: 100%
PHBPU [16]
  pest or weed control at 20 g/ha: 80%
SETVI [17]; dosage 5 g/ha
  pest or weed control at 5 g/ha: 80%
SETVI [17]; dosage 20 g/ha
  pest or weed control at 20 g/ha: 100%
ECHCG [9]; Echinochloa crus-galli, 504 h
  pest or weed control at 80 g/ha: 100%
ABUTH [10]; Abutilon theophrasti, 504 h, 80 g/ha, scored visually after 3 weeks vs untreated controls (100% = plants have died, 0% = like control plants)
  pest or weed control at 80 g/ha: 100%
ALOMY [13]; Alopecurus myosuroides, 504 h, 80 g/ha, scored visually after 3 weeks vs untreated controls (100% = plants have died, 0% = like control plants)
  pest or weed control at 80 g/ha: 100%
ALOMY [13]; Alopecurus myosuroides, 504 h, 20 g/ha, scored visually after 3 weeks, 100% = plants have died, 0% = like control plants
  pest or weed control at 20 g/ha: 90%
VERPE; Veronica persica, 504 h
  pest or weed control at 80 g/ha: 80%
PHBPU [11]; Ipomoea purpurea, 504 h
  pest or weed control at 80 g/ha: 80%
ALOMY [18]; dosage 5 g/ha
  pest or weed control at 5 g/ha: 80%
ALOMY [18]; dosage 20 g/ha
  pest or weed control at 20 g/ha: 90%
AVEFA; Avena fatua, 504 h
  pest or weed control at 80 g/ha: 100%
POLCO; Fallopia convolvulus, 504 h
  pest or weed control at 80 g/ha: 90%
ABUTH [15]; Abutilon theophrasti, 504 h, dosage 5 g/ha
  pest or weed control at 5 g/ha: 90%
ABUTH [15]; Abutilon theophrasti, 504 h, dosage 20 g/ha
  pest or weed control at 20 g/ha: 90%
